Converted amounts (≈) assume the structure as drawn. Structures can show the parent of a compound that is named as a salt.
Tests used:
canine P-glycoprotein = target: T1, canine P-glycoprotein (Canis lupus familiaris, UniProt C0KKU9); test: P-glycoprotein competitive transport assay (rhodamine 123, MDCK PGP cells); format: in vitro ADME; conditions: rhodamine competition, CBD at 1000 ng/mL
T1 construct: host or cells: MDCK PGP cells (canine P-gp expressing cell line)
Protocol: In this second study, a competitive P-gp substrate assay incorporating a canine P-gp expressing cell line is used to assess each test compound's ability to compete with the P-gp substrate rhodamine 123. Each concentration is tested on 3 separate days with same-day duplicates. Positive controls and negative controls are included in each run.
Results for each concentration of test compound evaluated are reported as non-P-gp substrate, weak P-gp substrate, moderate P-gp substrate, or strong P-gp substrate. The concentrations for CBD and CBDA are as follows: 10 ng/mL, 100 ng/mL and 1,000 ng/mL.
A competitive P-gp substrate assay using a canine P-gp expressing cell line was used to assess CBDA and/or CBD as a substrate for canine P-glycoprotein.

D17 cell line = conditions: 48 hours MTT
Protocol: (§1) CMT12, 17-71 and D17 cells are plated at a density of 2500 cells per well in 96-well tissue culture-treated plates (Laboratory Product Sales, Rochester, New York). All cell lines are treated with identical concentrations of the pure CBD ([…]) and various concentrations of doxorubicin or vincristine. The concentration of doxorubicin varies between cell lines in order to achieve between 20% and 80% proliferation inhibition. The cell lines are treated with serial dilutions of doxorubicin as follows; CMT12 and D17 (0.067-2 μM) and 17-71 (0.0167-0.5 μM). Methanol is used as a vehicle control for all CBD treatments and sterile water for doxorubicin and vincristine at the highest doses used to represent the vehicle control treated wells. Cells are then incubated for 48 hours prior to performing MTT assays, as previously described. Wells treated with the vehicle control are considered to represent 100% proliferating cells in triplicate over three experiments. Percent viable cells for each specific combination are averaged and reported as mean percent proliferation+/— SD for further CI evaluation.
(§2) Raw data from MTT proliferation assays and trypan blue exclusion assays (individual optical density of each well) are normalized to the vehicle control treatment for each cell line, considered to represent 100% proliferating cells (single or combined treatment). The percent proliferating cells is determined by comparing optical density readings or live counts, respectively, of treatment wells at each concentration compared with vehicle control wells in each cell line.
(§3) The compound interactions of chemotherapy and CBD treatment in the CI studies are calculated by multiple drug effect analysis using Compusyn software (v.2; Compusyn Inc, Paramus, New Jersey) which employs the median equation principle according to the methodology described by Chou and Talalay to determine a CI value by the Formula I (Chou T C, Drug combination studies and their synergy quantification using the Chou-Talalay method, Cancer Res., 2010, 70(2), pp. 440-446, which is incorporated herein by reference in its entirety):
(§4) where (D)1 and (D)2 are the doses of both compounds in combination and (Dx)1 and (Dx)2 are the doses of each compound alone at x percent of inhibition. CI values≤0.9 indicate synergism, a CI value>0.9 and <1.1 indicates an additive effect, and CI values≥1.1 indicate antagonism.

CMT12 cell line = conditions: 48 hours MTT
Protocol: as §1, §2, §3, §4

[1] = test system: CMT12 mammary gland carcinoma cell line; test: 48 hours MTT proliferation assay, CMT12; format: cell-based, canine; conditions: pure compound
Protocol: (§5) 3-(4,5-Dimethylthaizol-2-yl)-2,5-diphenyltetrazolium bromide (MTT) assays are performed on all previously described cell lines; CMT12, HMPOS, D17, Abrams and 17-71. […] Cells are treated with vehicle (methanol or ethanol/DMSO mix) or various concentrations of the CBD, CBDA or CBD-rich hemp extract ranging from 0.42 to 20 μg/mL in serial dilution for 48 hours. MTT assays are performed after 48 hours of treatment by adding 20 μL of MTT dye ([…] filtered 5 mg/mL in phosphate-buffered saline [PBS]) to each well and incubating at 37° C. in 5% CO2 for 2 hours. The media is then aspirated, washed once with 200 μL of PBS and then solubilized in 200 μL of ethanol. Immediate analysis of the optical density of each well is performed using a spectrophotometric plate reader (Epoch; Biotek, Winooski, Vermont) at a wavelength of 570 nm as previously described (e.g., Vega-Avila E and Pugsley M K, An overview of colorimetric assay methods used to assess survival or proliferation of mammalian cells, Proc West Pharmacol Soc., 2011, 54, pp. 10-14 which is incorporated herein by reference in its entirety). The percent proliferating cells of control for each concentration is averaged and reported as a mean+/—SD from triplicate wells over three experiments.
(§6) For CBD, CBDA and hemp extract concentrations needed to obtain a 50% inhibition of cell proliferation (IC50) are then calculated across experiments by Probit analysis using XLFit5 software (IDBS, Guildford, United Kingdom) for reporting the results for each cell line.

[2] = test system: Abrams osteosarcoma cell line; test: 48 hours MTT proliferation assay, Abrams; format: cell-based, canine; conditions: pure compound
Protocol: as §5, §6

CYP2B11 = target: T2, CYP2B11 (Canis lupus familiaris, UniProt P24460); test: CYP2B11 activity inhibition in pooled dog liver microsomes; conditions: CYP2B11; no preincubation vs 20 min preincubation; 10 μM
T2 sequence (P24460 1-494): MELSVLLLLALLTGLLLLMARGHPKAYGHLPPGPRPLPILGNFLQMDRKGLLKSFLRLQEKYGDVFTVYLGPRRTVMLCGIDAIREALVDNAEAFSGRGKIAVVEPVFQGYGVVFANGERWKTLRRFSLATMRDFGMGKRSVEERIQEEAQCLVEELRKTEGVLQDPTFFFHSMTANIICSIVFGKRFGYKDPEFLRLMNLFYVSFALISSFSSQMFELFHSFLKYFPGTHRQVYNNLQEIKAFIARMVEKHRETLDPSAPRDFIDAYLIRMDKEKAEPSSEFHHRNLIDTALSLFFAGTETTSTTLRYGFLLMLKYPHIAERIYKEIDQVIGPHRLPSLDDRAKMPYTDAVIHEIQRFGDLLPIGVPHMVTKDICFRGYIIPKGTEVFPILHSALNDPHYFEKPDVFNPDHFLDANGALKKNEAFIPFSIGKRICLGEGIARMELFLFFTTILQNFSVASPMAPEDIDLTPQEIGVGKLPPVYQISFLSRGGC
Protocol: (§7) Inhibition potency (i.e. IC50) is determined by measuring the decrement in metabolism of P450-specific marker activities in pooled dog liver microsomes with increasing concentrations of CBD, CBDA, and hemp extracts. P450-specific markers include bupropion 6-hydroxylation (CYP2B11), dextromethorphan 0-demethylation (CYP2D15) and omeprazole sulfoxidation (CYP3A12). IC50 values are determined both with and without preincubation of liver microsomes with potential inhibitor to evaluate whether there is mechanism-based time-dependent inhibition.
(§8) The following parameters are assessed: (1) the rates of CBD and CBDA metabolism by dog liver microsomes and by 11 recombinant canine P450 enzymes; (2) the predicted percent contribution of each P450 to total CBD and CBDA metabolism in dog liver; and (3) IC50 values for inhibition of CYP2B11, CYP2D15 and CYP3A12 metabolism in dog liver, both with and without inhibitor preincubation.
(§9) FIGS. 13-15 show activity assays for CYP3A12 (FIGS. 13A and 13B), CYP2B11 (FIGS. 14A and 14B), and CYP2D15 (FIGS. 15A and 15B). Assays using either no preincubation (FIGS. 13A, 14A, and 15A) or 20 minutes of preincubation (FIGS. 13B, 14B, and 15B) were performed.

CYP3A12 = CYP3A12 (Canis lupus familiaris, UniProt P24463); test: CYP3A12 activity inhibition in pooled dog liver microsomes; conditions: CYP3A12; no preincubation vs 20 min preincubation; 10 μM
Protocol: as §7, §8, §9

CYP2D15 = target: T3, CYP2D15 (Canis lupus familiaris, UniProt Q29473); test: CYP2D15 activity inhibition in pooled dog liver microsomes; format: in vitro ADME; conditions: no preincubation vs 20 min preincubation, 10 μM
T3 construct: P450-specific marker activities in pooled dog liver microsomes; from tissue; host or cells: pooled dog liver microsomes
T3 sequence (Q29473 1-500): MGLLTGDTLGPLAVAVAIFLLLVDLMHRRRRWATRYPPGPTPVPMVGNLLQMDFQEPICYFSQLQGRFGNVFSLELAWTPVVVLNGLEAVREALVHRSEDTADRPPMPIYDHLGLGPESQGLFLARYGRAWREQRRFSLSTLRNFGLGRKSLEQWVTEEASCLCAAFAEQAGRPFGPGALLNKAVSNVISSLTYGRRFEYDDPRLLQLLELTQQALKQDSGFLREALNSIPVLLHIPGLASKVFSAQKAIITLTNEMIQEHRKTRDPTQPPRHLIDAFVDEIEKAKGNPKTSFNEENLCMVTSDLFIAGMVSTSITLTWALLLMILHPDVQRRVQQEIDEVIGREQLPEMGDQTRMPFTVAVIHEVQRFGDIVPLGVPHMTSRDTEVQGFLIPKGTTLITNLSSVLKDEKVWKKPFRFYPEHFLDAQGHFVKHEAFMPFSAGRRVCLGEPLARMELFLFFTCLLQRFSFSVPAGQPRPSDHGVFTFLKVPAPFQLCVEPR

[3] = test system: 17-71 B cell lymphoma cell line; test: 48 hours MTT proliferation assay, 17-71; format: cell-based, canine; conditions: pure compound
Protocol: as §5, §6

[4] = test system: D17 osteosarcoma cell line; test: 48 hours MTT proliferation assay, D17; format: cell-based, canine; conditions: pure compound
Protocol: as §5, §6

[5] = test system: HMPOS osteosarcoma cell line; test: 48 hours MTT proliferation assay, HMPOS; format: cell-based, canine; conditions: pure compound
Protocol: as §5, §6

[6] = Pharmacokinetics of three oral forms of CBD-rich hemp extract in dogs (serum LC-MS/MS); conditions: oral hemp extract forms 2 mg/kg CBD/CBDA
Text: The pharmacokinetics of cannabidiol (CBD), cannabidiolic acid (CBDA), Δ9-tetrahydrocannabinol (THC), and tetrahydrocannabinolic acid (THCA) on three oral forms of CBD-rich hemp extract that contained near equal amounts of CBD and CBDA, and minor amounts (<0.3% by weight) of THC and THCA in dogs were studied. The metabolized psychoactive component of THC, 11-hydroxy-Δ9-tetrahydrocannabinol (11-OH-THC) and CBD metabolites 7-hydroxycannabidiol (7-OH-CBD) and 7-nor-7-carboxycannabidiol (7-COOH-CBD) were also assessed to better understand the pharmacokinetic differences between three formulations regarding THC and CBD, and their metabolism. Six purpose-bred female beagles were utilized for study purposes, each having an initial 7-point, 24-h pharmacokinetic study performed using a dose of 2 mg/kg body weight of CBD/CBDA (˜1 mg/kg CBD and ˜1 mg/kg CBDA). Dogs were then dosed every 12 h for 2 weeks and had further serum analyses at weeks 1 and 2, 6 h after the morning dose to assess serum cannabinoids. Serum was analyzed for each cannabinoid or cannabinoid metabolite using liquid chromatography and tandem mass spectroscopy (LC-MS/MS).

T1 sequence (C0KKU9 1-1281): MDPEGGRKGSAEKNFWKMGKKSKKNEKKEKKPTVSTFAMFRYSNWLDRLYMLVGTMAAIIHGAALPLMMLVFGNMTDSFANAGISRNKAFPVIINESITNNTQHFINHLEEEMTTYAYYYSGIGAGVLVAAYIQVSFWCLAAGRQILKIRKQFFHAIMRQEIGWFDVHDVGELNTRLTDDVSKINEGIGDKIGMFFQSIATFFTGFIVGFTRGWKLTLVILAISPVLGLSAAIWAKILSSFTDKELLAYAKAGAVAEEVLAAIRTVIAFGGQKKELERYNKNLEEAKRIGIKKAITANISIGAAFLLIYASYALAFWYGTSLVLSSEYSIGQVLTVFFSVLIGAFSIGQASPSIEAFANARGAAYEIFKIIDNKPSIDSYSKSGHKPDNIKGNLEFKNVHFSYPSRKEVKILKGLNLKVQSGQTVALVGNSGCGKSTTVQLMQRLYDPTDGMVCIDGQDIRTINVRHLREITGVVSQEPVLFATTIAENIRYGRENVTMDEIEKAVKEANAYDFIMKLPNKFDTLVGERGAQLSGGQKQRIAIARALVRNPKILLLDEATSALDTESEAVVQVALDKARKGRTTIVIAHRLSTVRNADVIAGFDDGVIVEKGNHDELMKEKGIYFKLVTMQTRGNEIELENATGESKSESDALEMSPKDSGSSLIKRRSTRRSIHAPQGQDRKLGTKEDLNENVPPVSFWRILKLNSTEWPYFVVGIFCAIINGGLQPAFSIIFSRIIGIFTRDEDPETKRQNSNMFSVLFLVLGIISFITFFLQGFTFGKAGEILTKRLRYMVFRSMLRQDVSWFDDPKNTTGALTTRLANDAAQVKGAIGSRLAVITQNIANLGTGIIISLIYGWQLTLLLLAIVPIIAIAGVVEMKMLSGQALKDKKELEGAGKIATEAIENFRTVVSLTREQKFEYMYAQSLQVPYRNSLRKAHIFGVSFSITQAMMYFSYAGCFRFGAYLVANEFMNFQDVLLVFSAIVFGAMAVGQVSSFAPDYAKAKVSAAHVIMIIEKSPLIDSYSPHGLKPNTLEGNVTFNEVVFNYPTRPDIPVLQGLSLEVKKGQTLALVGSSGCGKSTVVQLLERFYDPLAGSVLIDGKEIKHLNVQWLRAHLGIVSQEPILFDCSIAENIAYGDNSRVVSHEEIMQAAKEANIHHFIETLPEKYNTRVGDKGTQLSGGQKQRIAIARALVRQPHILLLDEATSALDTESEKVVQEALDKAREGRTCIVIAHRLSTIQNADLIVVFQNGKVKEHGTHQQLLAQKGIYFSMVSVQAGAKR
Sequence of CYP3A12 (P24463 whole entry): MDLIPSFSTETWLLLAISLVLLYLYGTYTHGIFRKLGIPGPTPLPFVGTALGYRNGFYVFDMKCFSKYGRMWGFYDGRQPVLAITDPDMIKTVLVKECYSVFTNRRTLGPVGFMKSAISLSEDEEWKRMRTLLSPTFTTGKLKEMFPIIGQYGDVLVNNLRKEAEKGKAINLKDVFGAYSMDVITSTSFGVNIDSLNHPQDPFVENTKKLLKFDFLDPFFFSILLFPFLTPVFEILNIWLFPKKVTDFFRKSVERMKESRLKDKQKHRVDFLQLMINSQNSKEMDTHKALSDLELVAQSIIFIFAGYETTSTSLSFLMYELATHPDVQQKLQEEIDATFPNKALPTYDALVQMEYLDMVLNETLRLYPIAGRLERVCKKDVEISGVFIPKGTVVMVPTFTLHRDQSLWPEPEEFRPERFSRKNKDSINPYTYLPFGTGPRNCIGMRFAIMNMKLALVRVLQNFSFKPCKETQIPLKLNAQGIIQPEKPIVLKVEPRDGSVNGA

Question: For `N.N.O=C([O-])C1(C(=O)[O-])CCC1.[Pt+2]` [Carboplatin], which “Mean MFI ratio compound:vehicle” value (canine P-glycoprotein) is on record?
Answer: 0.74

Question: And the “MFI in MDCK PGP cells” value (canine P-glycoprotein; rhodamine alone 215)?
Answer: 160

Question: What does the source list for `COc1cccc2c1C(=O)c1c(O)c3c(c(O)c1C2=O)C[C@@](O)(C(=O)CO)C[C@@H]3O[C@H]1C[C@H](N)[C@H](O)[C@H](C)O1` [doxorubicin, doxorubicin hydrochloride]?
Answer: inhibitory concentrations from IC20-IC80 (D17 cell line; doxorubicin alone): 500 to 2000 nM; inhibitory concentrations from IC20-IC80 (CMT12 cell line; doxorubicin alone): 500 to 2000 nM

Question: For `CC[C@]1(O)C[C@H]2CN(CCc3c([nH]c4ccccc34)[C@@](C(=O)OC)(c3cc4c(cc3OC)N(C=O)[C@H]3[C@@](O)(C(=O)OC)[C@H](OC(C)=O)[C@]5(CC)C=CCN6CC[C@]43[C@@H]65)C2)C1` [vincristine, vincristine sulfate], which IC20-IC80 values (D17 cell line; vincristine alone) is on record?
Answer: 1.7 to 6.8 nM

Question: And the IC20-IC80 values (CMT12 cell line; vincristine alone)?
Answer: 1.7 to 6.8 nM

Question: What does the source list for `C=C(C)[C@@H]1CCC(C)=C[C@H]1c1c(O)cc(CCCCC)c(C(=O)O)c1O` [CBDA, cannabidiolic acid]?
Answer: IC50 (Probit) [1]: could not be determined since 50% growth inhibition is not achieved in the assay; concentrations that significantly diminished proliferation vs vehicle control ([1]; P<0.05): ≥ 10 µg/mL; IC50 (Probit) [2]: could not be calculated because of lack of growth inhibition; concentrations that significantly diminished proliferation vs vehicle control ([2]; P<0.05): 20 µg/mL; time-dependent inhibition (TDI) (CYP2B11): did not show TDI; time-dependent inhibition (TDI) (CYP3A12): did not show TDI; time-dependent inhibition (TDI) (CYP2D15): did not show TDI; IC50 ([3]; Canis lupus familiaris, B-cell, read-out: IC50 (Probit)): 15.1 µg/mL (≈ 42.1 µM); concentrations that significantly diminished proliferation vs vehicle control ([3]; P<0.05): ≥ 5 µg/mL; IC50 (Probit) [4]: could not be calculated because of lack of growth inhibition; concentrations that significantly diminished proliferation vs vehicle control ([4]; P<0.05): 20 µg/mL; IC50 (Probit) [5]: could not be calculated because of lack of growth inhibition; concentrations that significantly diminished proliferation vs vehicle control ([5]; P<0.05): 20 µg/mL

Question: With `CCCCCc1cc(O)c2c(c1)OC(C)(C)[C@@H]1CCC(C)=C[C@@H]21` [THC, delta-9-tetrahydrocannabinol] as the compound, how does the THC serum concentration [6] read?
Answer: below the quantitation limit of the assay for nearly all samples
